Among the data in PubChem BioAssay (NCI) are GI50 and TGI values, retold here.

Among the test systems are OVCAR-4 ovarian; SW-620 colon; COLO 205 colon; NCI-H522 lung; RPMI-8226 leukemia; UACC-257 melanoma; SF-295 CNS; UACC-62 melanoma; U251 CNS; HT29 colon.
Holding throughout (test): inhibition of tumour cell growth, NCI panel, 48 h

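Each compound was tested at five concentrations against cells in 96-well plates for 48 hours. Abbreviation: GI50, concentration required for 50% inhibition of growth. TGI: total growth inhibition.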 A value given as a limit tells only on which side of the number the result lay.

For the compound `Cc1cc(OCc2nnc3n2N=C(c2ccc(Cl)cc2Cl)CS3)ccc1Cl`, the GI50 is 59.6 µM with OVCAR-4 ovarian; more than 100 µM in the assay with SW-620 colon; 60.2 µM in the assay with COLO 205 colon; 22.6 µM in the assay on NCI-H522 lung; 40.6 µM in the assay on RPMI-8226 leukemia; 42.1 µM in the assay with UACC-257 melanoma. Moreover, the GI50 with SF-295 CNS is 28.4 µM; in the assay with UACC-62 melanoma, 34.4 µM; in the assay with U251 CNS, 71.3 µM; with HT29 colon it was 59.8 µM. The TGI with OVCAR-4 ovarian was more than 100 µM; in the assay with SW-620 colon, more than 100 µM; in the assay with COLO 205 colon, more than 100 µM; in the assay on NCI-H522 lung it was 65 µM; in the assay with RPMI-8226 leukemia it was more than 100 µM; with UACC-257 melanoma, 93.2 µM. For the same compound, the TGI with SF-295 CNS, in the assay on UACC-62 melanoma, in the assay on U251 CNS and in the assay on HT29 colon was more than 100 µM throughout.
In the case of `COc1cc2c3c(n(CCCN=[N+]=[N-])c(=O)c2cc1OC)-c1ccc(N(C)C)cc1C3=O`, the GI50 with OVCAR-4 ovarian, with SW-620 colon, with COLO 205 colon, with NCI-H522 lung, with RPMI-8226 leukemia and with UACC-257 melanoma was more than 100 µM throughout. For the same compound, the GI50 with SF-295 CNS, in the assay on UACC-62 melanoma, with U251 CNS and with HT29 colon was more than 100 µM in each case. Also, the TGI in the assay on OVCAR-4 ovarian, with SW-620 colon, in the assay on COLO 205 colon, in the assay with NCI-H522 lung, with RPMI-8226 leukemia and in the assay with UACC-257 melanoma was more than 100 µM throughout. Moreover, the TGI with SF-295 CNS, in the assay on UACC-62 melanoma, in the assay on U251 CNS and in the assay with HT29 colon was more than 100 µM throughout.
Take `COc1cc2c(c(OC3OC(CO)C(O)C(O)C3O)c1)C(=O)CC(c1ccc(O)cc1)O2` (stereo not given): the TGI in the assay on OVCAR-4 ovarian, in the assay on SW-620 colon, with COLO 205 colon, in the assay on NCI-H522 lung, in the assay on RPMI-8226 leukemia and with UACC-257 melanoma was more than 100 µM throughout. Further, the TGI in the assay with SF-295 CNS, in the assay on UACC-62 melanoma, in the assay with U251 CNS and in the assay on HT29 colon was more than 100 µM each time.
For the compound `Nn1c(N=Nc2c(O)[nH]c3c(Cl)cc(Cl)cc23)n[nH]c1=S`, the TGI in the assay on OVCAR-4 ovarian, in the assay with SW-620 colon, in the assay with COLO 205 colon, in the assay on NCI-H522 lung, in the assay with RPMI-8226 leukemia and in the assay with UACC-257 melanoma was more than 100 µM throughout. In addition, the TGI with SF-295 CNS, in the assay on UACC-62 melanoma, in the assay with U251 CNS and in the assay with HT29 colon was more than 100 µM in each case.
`O=C(NS(=O)(=O)c1ccccc1)C(Cc1ccccc1)C(Cc1ccccc1)C(=O)NS(=O)(=O)c1ccccc1` (stereo not given): the TGI with OVCAR-4 ovarian, in the assay on SW-620 colon, with COLO 205 colon, in the assay with NCI-H522 lung, in the assay with RPMI-8226 leukemia and with UACC-257 melanoma was more than 100 µM each time. Also, the TGI in the assay with SF-295 CNS, with UACC-62 melanoma, with U251 CNS and in the assay with HT29 colon was more than 100 µM each time.
`Oc1ccc(Cl)cc1CNc1nc2ccccc2[nH]1`: the GI50 in the assay on OVCAR-4 ovarian was 11.4 µM; in the assay on SW-620 colon, 15.5 µM; in the assay with COLO 205 colon, 16.8 µM; in the assay on NCI-H522 lung, 11.9 µM; in the assay with RPMI-8226 leukemia, 10 µM; in the assay with UACC-257 melanoma, 14.7 µM. Further, the GI50 in the assay on SF-295 CNS was 12.9 µM; in the assay with UACC-62 melanoma, 13.8 µM; with U251 CNS it was 11.7 µM; in the assay on HT29 colon it was 17.2 µM. Moreover, the TGI is 37.5 µM in the assay with OVCAR-4 ovarian; 31.9 µM in the assay with SW-620 colon; 32.9 µM with COLO 205 colon; 27.7 µM with NCI-H522 lung; 49.5 µM in the assay on RPMI-8226 leukemia; 29.4 µM in the assay with UACC-257 melanoma. In addition, the TGI came out at 27.5 µM with SF-295 CNS, 27.6 µM in the assay with UACC-62 melanoma, 24.5 µM in the assay with U251 CNS and 35.5 µM with HT29 colon.
Take `Cc1cccc(C(C)(C)C)c1NC(=O)CC1Sc2ccccc2NC1=O` (stereo not given): the TGI with OVCAR-4 ovarian is more than 100 µM; with SW-620 colon it was 32.6 µM; with COLO 205 colon it was 59.7 µM; with NCI-H522 lung, more than 100 µM; in the assay with RPMI-8226 leukemia it was 46 µM; with UACC-257 melanoma, more than 100 µM. The TGI in the assay with SF-295 CNS, with UACC-62 melanoma, in the assay with U251 CNS and with HT29 colon was more than 100 µM in each case.
In the case of `C=C1c2c(Cl)ccc(O)c2C(O)=C2C(=O)[C@]3(O)C(O)=C(C(N)=O)C(=O)[C@@H](N(C)C)[C@@H]3[C@@H](O)[C@H]12`, the GI50 is 0.347 µM with OVCAR-4 ovarian; 1.5 µM with SW-620 colon; 1.11 µM in the assay on COLO 205 colon; 1.01 µM in the assay with NCI-H522 lung; 1.1 µM with RPMI-8226 leukemia; 0.888 µM with UACC-257 melanoma. The GI50 with SF-295 CNS was 1.19 µM; in the assay with UACC-62 melanoma it was 0.79 µM; with U251 CNS, 0.949 µM; with HT29 colon, 1.55 µM. Moreover, the TGI with OVCAR-4 ovarian was 9.66 µM; in the assay on SW-620 colon it was more than 50 µM; in the assay on COLO 205 colon it was 3.02 µM; with NCI-H522 lung it was 3.06 µM; in the assay on RPMI-8226 leukemia it was 4.25 µM; in the assay with UACC-257 melanoma, 3.61 µM. For the same compound, the TGI with SF-295 CNS was determined as 5 µM; with UACC-62 melanoma, 2.73 µM; in the assay on U251 CNS it was 4.09 µM; in the assay on HT29 colon it was 6.18 µM.
